Measurements as given in patent publication US20060154346A1, “Microorganism producing 5'xanthylic acid” (priority 2002, published 2006).

Assays:
[1] = tested on: Corynebacterium ammoniagenes KCCM 10340; assay: Growth of the strain in medium with added oligomycin (resistance test); format: cell-based; design: key: +: growth; −: no growth; conditions: 30° C. for 5 days
Description: (§1) The invention relates to Corynebacterium ammoniagenes CJXOL 0201 (KCCM-10447) which is a mutant strain of Corynebacterium ammoniagenes KCCM 10340, producing 5′-xanthylic acid. The CJXOL 0201 is obtained by treating Corynebacterium ammoniagenes KCCM 10340 with UV radiation and mutation derivatives such as N-methy-N′-nitro-n-nitrosoguanidine(NTG) according to ordinary procedure, and selecting a mutant strain among these which can grow in the culture medium (glucose 20 g/L, potassium phosphate monobasic 1 g/L, potassium phosphate dibasic 1 g/L, urea 2 g/L, ammonium sulfate 3 g/L, magnesium sulfate 1 g/L, calcium chloride 100 mg/L, ferrous sulfate 20 mg/L, manganese sulfate 10 mg/L, zinc sulfate 10 mg/L, biotin 30 μg/L, thiamine hydrochloride 0.1 mg/L, copper sulfate 0.8 mg/L, adenine 20 mg/L, guanine 20 mg/L, pH 7.2) which different concentration levels of oligomycin (1,2,5,10,20,50 mg/L) is added into. […] 21, 2002 with accession Number KCCM 10447.
(§2) According to the Table 1, the microorganism of the invention can grow in the medium which 10 mg/L oligomycin was added into. The medium was: fermented at 30° C. for 5 days.

[2] = tested on: Corynebacterium ammoniagenes CJXOL 0201; assay: as above; format: cell-based; design: key to growth of strain: +: growth; −: no growth
Description: as §1, §2

CC[C@H]1/C=C/C=C/C[C@@H](C)[C@H](O)[C@@](C)(O)C(=O)[C@@H](C)[C@H](O)[C@@H](C)C(=O)[C@@H](C)[C@H](O)[C@@H](C)/C=C/C(=O)O[C@@H]2[C@H](C)[C@H](CC1)O[C@]1(CC[C@H](C)[C@H](C[C@@H](C)O)O1)[C@H]2C [Oligomycin, oligomycin]
growth of strain ([1]; oligomycin 10 mg/L): +
growth of strain ([1]; oligomycin 20 mg/L): −
growth of strain ([1]; oligomycin 30 mg/L): −
growth of strain ([1]; oligomycin 40 mg/L): −
growth of strain ([1]; oligomycin 50 mg/L): −
oligomycin concentration up to which resistance (growth) was shown; no growth above ([2]; 0˜50 mg/L oligomycin added into selection medium): up to 20 mg/L
growth in medium with oligomycin ([2]; oligomycin 10 mg/L, 30° C. for 5 days): can grow
growth of strain ([2]; oligomycin 30 mg/L, 30° C. for 5 days): +
growth of strain ([2]; oligomycin 40 mg/L, 30° C. for 5 days): −
growth of strain ([2]; oligomycin 50 mg/L, 30° C. for 5 days): −
